≈ marks a conversion by molar mass, not a printed value.
Experiments:
Human KLK1 = Human KLK1 (Homo sapiens (Human), UniProt P06870); assay: Determination of the IC50 for KLK1; type: biochemical; settings: Human KLK1, 37° C., substrate H-DVal-Leu-Arg-AFC; Table 13
Procedure, shortened: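 IC50 values reflect residual human KLK1 activity, read as initial rate from optical absorbance change at 410 nm. Incubations ran at 37° C with H-DVal-Leu-Arg-AFC as substrate across a compound concentration series.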

Human plasma kallikrein = Human plasma kallikrein (Homo sapiens (Human), UniProt P03952); assay: Determination of the IC50 for plasma kallikrein; type: biochemical; settings: 37° C., substrate H-DPro-Phe-Arg-AFC, read-out: IC50 (human PKal)
Human plasma kallikrein, sequence (P03952 391-638): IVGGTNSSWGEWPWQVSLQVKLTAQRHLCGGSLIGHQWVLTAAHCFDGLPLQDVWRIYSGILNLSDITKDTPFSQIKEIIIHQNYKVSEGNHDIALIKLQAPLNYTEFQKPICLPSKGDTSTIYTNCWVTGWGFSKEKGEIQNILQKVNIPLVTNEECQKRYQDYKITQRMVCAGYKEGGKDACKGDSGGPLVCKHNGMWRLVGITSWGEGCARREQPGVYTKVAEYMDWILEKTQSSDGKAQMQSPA
Human plasma kallikrein, sequence (P03952 20-390 partner): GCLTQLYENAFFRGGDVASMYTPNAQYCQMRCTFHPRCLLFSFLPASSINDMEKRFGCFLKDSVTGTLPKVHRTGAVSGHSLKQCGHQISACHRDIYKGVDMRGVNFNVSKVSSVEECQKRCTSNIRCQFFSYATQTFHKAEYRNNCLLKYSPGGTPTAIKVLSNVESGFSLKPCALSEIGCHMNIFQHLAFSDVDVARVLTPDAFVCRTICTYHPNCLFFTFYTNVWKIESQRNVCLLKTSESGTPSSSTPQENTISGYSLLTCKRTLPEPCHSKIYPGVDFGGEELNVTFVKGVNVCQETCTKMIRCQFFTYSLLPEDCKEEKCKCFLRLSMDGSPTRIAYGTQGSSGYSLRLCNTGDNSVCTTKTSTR
Procedure, shortened: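 Residual activity (initial rate, absorbance at 410 nm) gave the IC50. Reactions at 37° C combined human plasma kallikrein, substrate H-DPro-Phe-Arg-AFC and a range of inhibitor concentrations.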

[1] = Determination of thermodynamic solubility in phosphate buffer; type: physicochemical; settings: pH 7.4, aqueous buffer, thermodynamic from solid, ammonium phosphate buffer pH7.4, 290 mOsm, 37° C., nominal 1 mg/mL, read-out: Solubility in PO4 buffer
Description: Determination of Thermodynamic Solubility in Phosphate Buffer
The thermodynamic solubility of compound was determined in Ammonium Phosphate Buffer (pH7.4, 290 mOsm). Compounds were made up at a nominal concentration of 1 mg/mL, vortexed then placed on a shaker for 1 h, 37° C. at approximately 950 rpm. Following incubation samples were transferred to eppendorf tubes and centrifuged at 15,000 g (r.c.f.) for 10 minutes at 37° C. The concentration of compound in the supernatant was determined by LC-MS/MS analysis using a calibration line prepared from a DMSO stock.

Human KLK1, sequence (P06870 25-262): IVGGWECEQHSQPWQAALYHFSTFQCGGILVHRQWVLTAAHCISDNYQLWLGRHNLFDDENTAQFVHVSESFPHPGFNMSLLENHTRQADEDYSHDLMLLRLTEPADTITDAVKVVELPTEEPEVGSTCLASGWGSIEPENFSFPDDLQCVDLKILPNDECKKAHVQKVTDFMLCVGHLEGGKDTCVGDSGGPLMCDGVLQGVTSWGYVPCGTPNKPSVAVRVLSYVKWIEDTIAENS

CCOc1ccc(C[C@@H](NC(=O)c2cccnc2)C(=O)N[C@@H](Cc2ccccc2)C(=O)NCc2ccc(CN)cc2)cc1 [Example 70, N-[(R)-1-[(S)-1-(4-Aminomethyl-benzylcarbamoyl)-2-phenyl-ethylcarbamoyl]-2-(4-ethoxy-phenyl)-ethyl]-nicotinamide]
IC50 (Human KLK1): 7.5 µM | IC50 (Human plasma kallikrein): 126 nM | solubility at 1 h [1]: 11.5 µg/mL (≈ 19.9 µM)

CCOc1ccc(C[C@@H](NC(=O)c2ccncc2)C(=O)N[C@@H](Cc2ccccc2)C(=O)NCc2ccc(CN)cc2)cc1 [Example 71, N-[(R)-1-[(S)-1-(4-Aminomethyl-benzylcarbamoyl)-2-phenyl-ethylcarbamoyl]-2-(4-ethoxy-phenyl)-ethyl]-isonicotinamide]
IC50 (Human KLK1): > 10 µM | IC50 (Human plasma kallikrein): 77 nM | solubility at 1 h [1]: 22.1 µg/mL (≈ 38.1 µM)

CCOc1ccc(C[C@@H](NC(=O)c2ccsc2)C(=O)N[C@@H](Cc2ccccc2)C(=O)NCc2ccc(CN)cc2)cc1 [Example 72, Thiophene-3-carboxylic acid-[(R)-1-[(S)-1-(4-aminomethyl-benzylcarbamoyl)-2-phenyl-ethylcarbamoyl]-2-(4-ethoxy-phenyl)-ethyl]-amide]
IC50 (Human KLK1): 9.1 µM | IC50 (Human plasma kallikrein): 46 nM | solubility at 1 h [1]: 6.9 µg/mL (≈ 11.8 µM)

CCOc1ccc(C[C@@H](NC(=O)c2cccs2)C(=O)N[C@@H](Cc2ccccc2)C(=O)NCc2ccc(CN)cc2)cc1 [Example 73, Thiophene-2-carboxylic acid [(R)-1-[(S)-1-(4-aminomethyl-benzylcarbamoyl)-2-phenyl-ethylcarbamoyl]-2-(4-ethoxy-phenyl)-ethyl]-amide]
IC50 (Human KLK1): 9.3 µM | IC50 (Human plasma kallikrein): 25 nM | solubility at 1 h [1]: 5.1 µg/mL (≈ 8.72 µM)

CCOc1ccc(C[C@@H](NC(=O)C2CCCCC2)C(=O)N[C@@H](Cc2ccccc2)C(=O)NCc2ccc(CN)cc2)cc1 [Example 75, Cyclohexanecarboxylic acid [(R)-1-[(S)-1-(4-aminomethyl-benzylcarbamoyl)-2-phenyl-ethylcarbamoyl]-2-(4-ethoxy-phenyl)-ethyl]-amide]
IC50 (Human KLK1): > 10 µM | IC50 (Human plasma kallikrein): 270 nM | solubility at 1 h [1]: 1.06 µg/mL (≈ 1.81 µM)

CCOc1ccc(C[C@@H](NC(=O)c2ccno2)C(=O)N[C@@H](Cc2ccccc2)C(=O)NCc2ccc(CN)cc2)cc1 [Example 79, Isoxazole-5-carboxylic acid [(R)-1-[(S)-1-(4-aminomethyl-benzylcarbamoyl)-2-phenyl-ethylcarbamoyl]-2-(4-ethoxy-phenyl)-ethyl]-amide]
IC50 (Human KLK1): 8.6 µM | IC50 (Human plasma kallikrein): 38 nM | solubility at 1 h [1]: 2.4 µg/mL (≈ 4.21 µM)

CCOc1ccc(C[C@@H](NC(=O)c2ccccn2)C(=O)N[C@@H](Cc2ccccc2)C(=O)NCc2ccc(CN)cc2)cc1 [Example 81, Pyridine-2-carboxylic acid [(R)-1-[(S)-1-(4-aminomethyl-benzylcarbamoyl)-2-phenyl-ethylcarbamoyl]-2-(4-ethoxy-phenyl)-ethyl]-amide]
IC50 (Human KLK1): > 10 µM | IC50 (Human plasma kallikrein): 40 nM | solubility at 1 h [1]: 1.3 µg/mL (≈ 2.24 µM)

CCOc1ccc(C[C@@H](NS(=O)(=O)c2ccc(Cl)cc2)C(=O)N[C@@H](Cc2ccccc2)C(=O)NCc2ccc(CN)cc2)cc1 [Example 84, (R)-N-[(S)-1-(4-Aminomethyl-benzylcarbamoyl)-2-phenyl-ethyl]-2-(4-chloro-benzenesulfonylamino)-3-(4-ethoxy-phenyl)-propionamide]
IC50 (Human KLK1): 1.2 µM | IC50 (Human plasma kallikrein): 219 nM | solubility at 1 h [1]: 0.5 µg/mL (≈ 0.77 µM)

CCOc1ccc(C[C@@H](NC(=O)c2cccc(Cl)c2)C(=O)N[C@@H](Cc2ccccc2)C(=O)NCc2ccc(CN)cc2)cc1 [Example 88, N-[(R)-1-[(S)-1-(4-Aminomethyl-benzylcarbamoyl)-2-phenyl-ethylcarbamoyl]-2-(4-ethoxy-phenyl)-ethyl]-3-chloro-benzamide]
IC50 (Human KLK1): > 10 µM | IC50 (Human plasma kallikrein): 90 nM | solubility at 1 h [1]: 0.2 µg/mL (≈ 0.326 µM)

CCOc1ccc(C[C@@H](NC(=O)c2ccc(C)cc2)C(=O)N[C@@H](Cc2ccccc2)C(=O)NCc2ccc(CN)cc2)cc1 [Example 92, N-[(R)-1-[(S)-1-(4-Aminomethyl-benzylcarbamoyl)-2-phenyl-ethylcarbamoyl]-2-(4-ethoxy-phenyl)-ethyl]-4-methyl-benzamide]
solubility at 1 h [1]: 0.2 µg/mL (≈ 0.337 µM)

CCOc1ccc(C[C@@H](NC(=O)c2ccc(OC)cc2)C(=O)N[C@@H](Cc2ccccc2)C(=O)NCc2ccc(CN)cc2)cc1 [Example 95, N-[(R)-1-[(S)-1-(4-Aminomethyl-benzylcarbamoyl)-2-phenyl-ethylcarbamoyl]-2-(4-ethoxy-phenyl)-ethyl]-4-methoxy-benzamide]
solubility at 1 h [1]: 2.05 µg/mL (≈ 3.37 µM)

CCOc1ccc(C[C@@H](NC(=O)c2ccc(F)cc2)C(=O)N[C@@H](Cc2ccccc2)C(=O)NCc2ccc(CN)cc2)cc1 [Example 99, N-[(R)-1-[(S)-1-(4-Aminomethyl-benzylcarbamoyl)-2-phenyl-ethylcarbamoyl]-2-(4-ethoxy-phenyl)-ethyl]-4-fluoro-benzamide]
IC50 (Human KLK1): > 10 µM | IC50 (Human plasma kallikrein): 95 nM | solubility at 1 h [1]: 2.88 µg/mL (≈ 4.83 µM)

CCOc1ccc(C[C@@H](NC(=O)c2sccc2Cl)C(=O)N[C@@H](Cc2ccccc2)C(=O)NCc2ccc(CN)cc2)cc1 [Example 116, 3-Chloro-thiophene-2-carboxylic acid [(R)-1-[(S)-1-(4-aminomethyl-benzylcarbamoyl)-2-phenyl-ethylcarbamoyl]-2-(4-ethoxy-phenyl)-ethyl]-amide]
IC50 (Human KLK1): 6.3 µM | IC50 (Human plasma kallikrein): 18 nM | solubility at 1 h [1]: 1.39 µg/mL (≈ 2.24 µM)

CCOc1ccc(C[C@@H](NC(=O)c2sccc2C)C(=O)N[C@@H](Cc2ccccc2)C(=O)NCc2ccc(CN)cc2)cc1 [Example 119, 3-Methyl-thiophene-2-carboxylic acid [(R)-1-[(S)-1-(4-aminomethyl-benzylcarbamoyl)-2-phenyl-ethylcarbamoyl]-2-(4-ethoxy-phenyl)-ethyl]-amide]
IC50 (Human KLK1): 6.1 µM | IC50 (Human plasma kallikrein): 15 nM | solubility at 1 h [1]: 1.61 µg/mL (≈ 2.69 µM)

CCOc1ccc(C[C@@H](NC(=O)c2[nH]ccc2C)C(=O)N[C@@H](Cc2ccccc2)C(=O)NCc2ccc(CN)cc2)cc1 [Example 124, 3-Methyl-1H-pyrrole-2-carboxylic acid [(R)-1-[(S)-1-(4-aminomethyl-benzylcarbamoyl)-2-phenyl-ethylcarbamoyl]-2-(4-ethoxy-phenyl)-ethyl]-amide]
IC50 (Human KLK1): 8.4 µM | IC50 (Human plasma kallikrein): 20 nM | solubility at 1 h [1]: 64.5 µg/mL (≈ 111 µM)

CCOc1ccc(C[C@@H](NC(=O)c2sccc2N)C(=O)N[C@@H](Cc2ccccc2)C(=O)NCc2ccc(CN)cc2)cc1 [Example 125, 3-Amino-thiophene-2-carboxylic acid [(R)-1-[(S)-1-(4-aminomethyl-benzylcarbamoyl)-2-phenyl-ethylcarbamoyl]-2-(4-ethoxy-phenyl)-ethyl]-amide]
IC50 (Human KLK1): 7 µM | IC50 (Human plasma kallikrein): 10 nM | solubility at 1 h [1]: 43.6 µg/mL (≈ 72.7 µM)

CCCOc1ccc(C[C@@H](NC(=O)c2ccccc2)C(=O)N[C@@H](Cc2ccccc2)C(=O)NCc2ccc(CN)cc2)cc1 [Example 131, N-[(R)-1-[(S)-1-(4-Aminomethyl-benzylcarbamoyl)-2-phenyl-ethylcarbamoyl]-2-(4-propoxy-phenyl)-ethyl]-benzamide]
solubility at 1 h [1]: 0.56 µg/mL (≈ 0.945 µM)

CCOc1ccc(C[C@@H](NC(=O)c2ccccc2)C(=O)N[C@@H](Cc2c[nH]c3ccccc23)C(=O)NCc2ccc(CN)cc2)cc1 [Example 176, N-[(R)-1-[(S)-1-(4-Aminomethyl-benzylcarbamoyl)-2-(1H-indol-3-yl)-ethylcarbamoyl]-2-(4-ethoxy-phenyl)-ethyl]-benzamide]
solubility at 1 h [1]: 2.28 µg/mL (≈ 3.69 µM)
